The numbers were not newly measured in patent US20250051276A1 (priority 2021, published 2025), which cites them from elsewhere.

For data set [1], the system named is 5HT2A sensor. To be noted: cited from earlier work.
Data set [2] concerns 5HT2A sensor. The following applies: cited from earlier work. This is another data set of the same source.
The next data set deals with mice. The following applies: hallucinogenic potential; cited from earlier work.

With `CCN(CC)C(=O)[C@@H]1C=C2c3cccc4[nH]c(Br)c(c34)C[C@H]2N(C)C1` [BOL148], the “activation of the 5HT2A sensor assay in agonist mode” value (“activation of the 5HT2A sensor assay” for short) in the data set on 5HT2A sensor [1] was “do not activate the 5HT2A sensor assay in agonist mode”. Besides, in the data set with 5HT2A sensor [2], the “competition with 5-HT in the 5HT2A sensor assay in antagonist mode” value (“competition with 5-HT” for short) was “can compete with 5HT binding to 5HT2A”.

Turning to `COc1ccc2[nH]cc(CCN(C)C)c2c1` [Compound 5-MeO-DMT, 5-MeO-DMT], the “head-twitch response (HTR)” value in the data set on mice is recorded as “produces a robust, dose-dependent head-twitch response”. The “activation of the 5HT2A sensor assay” value in the data set on 5HT2A sensor [1] is given as “activate the 5HT2A sensor assay in agonist mode”. In the case of `CCN(CC)CCc1c[nH]c2cc(F)ccc12` [Compound 6-F-DET, 6-F-DET], the “activation of the 5HT2A sensor assay” value in the data set on 5HT2A sensor [1] was “do not activate the 5HT2A sensor assay in agonist mode”. Further, in the data set with 5HT2A sensor [2], the “competition with 5-HT” value is “can compete with 5HT binding to 5HT2A”. `COc1ccc2c(CCN(C)C)c[nH]c2c1` [Compound 6-MeO-DMT, 6-MeO-DMT]: the “head-twitch response (HTR)” value with mice is on record as “does not produce a HTR”. Besides, the “activation of the 5HT2A sensor assay” value in the data set with 5HT2A sensor [1] is “do not activate the 5HT2A sensor assay in agonist mode”. Moreover, the “competition with 5-HT” value in the data set on 5HT2A sensor [2] is on record as “compete off 5-HT”. As for `O=C(c1ccc(F)cc1)C1CCN(CCn2c(=O)[nH]c3ccccc3c2=O)CC1` [Ketanserin], the “activation of the 5HT2A sensor assay” value with 5HT2A sensor [1] is listed as “do not activate the 5HT2A sensor assay in agonist mode”. Further, the “competition with 5-HT” value in the data set on 5HT2A sensor [2] is reported as “can compete with 5HT binding to 5HT2A”. For `CN[C@H](C)Cc1ccc2c(c1)OCO2` [L-MDMA], the “activation of the 5HT2A sensor assay” value in the data set with 5HT2A sensor [1] is “do not activate the 5HT2A sensor assay in agonist mode”.

With `CCN(CC)C(=O)[C@@H]1C=C2c3cccc4[nH]cc(c34)C[C@H]2N(C)C1` [LSD], the “activation of the 5HT2A sensor assay” value in the data set with 5HT2A sensor [1] is “activate the 5HT2A sensor assay in agonist mode”.
